Several values for one entry are separate records, joined by “and”; a condition that tells them apart may be missing. Identical values can stand only once. Toxic doses and inconclusive results are not listed. Peptide text beside a SMILES is read from it. * marks the point of attachment. Cbz = O=C(OCc1ccccc1)*; βAla = NCCC(=O)O
Tested on: P388 leukemia ip, CD2F1 mice, survival T/C
Assay: NCI In Vivo Anticancer Drug Screen. Data for tumor model P388 Leukemia (intraperitoneal) in CD2F1 (CDF1) mice
Settings: endpoint: median survival time, higher = longer survival
Summary of the method: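 Mice carrying the transplanted tumor received test compound or vehicle. Survival was recorded in each group, and the value is the treated-group measurement divided by that of the vehicle-treated control group.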

[1] = dose: 100.0 mg/kg/injection, schedule: Q04DX003 (ip), vehicle: saline with Tween-80
[2] = dose: 200.0 mg/kg/injection, schedule: Q04DX003 (ip), vehicle: saline with Tween-80
[3] = dose: 400.0 mg/kg/injection, schedule: Q04DX003 (ip), vehicle: saline with Tween-80
[4] = dose: 60.0 mg/kg/injection, schedule: Q01DX005 (ip), vehicle: Klucel (hydroxypropylcellulose) (HPC)
[5] = dose: 120.0 mg/kg/injection, schedule: Q01DX005 (ip), vehicle: Klucel (hydroxypropylcellulose) (HPC)
[6] = dose: 240.0 mg/kg/injection, schedule: Q01DX005 (ip), vehicle: Klucel (hydroxypropylcellulose) (HPC)
[7] = dose: 60.0 mg/kg/injection, schedule: Q01DX005 (ip), vehicle: saline with Tween-80
[8] = dose: 120.0 mg/kg/injection, schedule: Q01DX005 (ip), vehicle: saline with Tween-80
[9] = dose: 240.0 mg/kg/injection, schedule: Q01DX005 (ip), vehicle: saline with Tween-80
[10] = dose: 50.0 mg/kg/injection, schedule: Q04DX003 (ip), vehicle: saline with Tween-80
[11] = dose: 12.5 mg/kg/injection, schedule: Q01DX009 (ip), vehicle: saline with Tween-80
[12] = dose: 25.0 mg/kg/injection, schedule: Q01DX009 (ip), vehicle: saline with Tween-80
[13] = dose: 50.0 mg/kg/injection, schedule: Q01DX009 (ip), vehicle: saline with Tween-80
[14] = dose: 50.0 mg/kg/injection, schedule: Q01DX005 (ip), vehicle: saline with Tween-80
[15] = dose: 100.0 mg/kg/injection, schedule: Q01DX005 (ip), vehicle: saline with Tween-80
[16] = dose: 200.0 mg/kg/injection, schedule: Q01DX005 (ip), vehicle: saline with Tween-80
[17] = dose: 25.0 mg/kg/injection, schedule: Q04DX002 (ip), vehicle: saline
[18] = dose: 25.0 mg/kg/injection, schedule: Q01DX009 (ip), vehicle: saline

SMILES: CC1(C)C2=CCCC3(OCCO3)C2(C)CCC1O (stereo not drawn)
- T/C [1]: 90 % of control
- T/C [2]: 90 % of control
- T/C [3]: 90 % of control

SMILES: N#Cc1c(-c2cccn(-c3ccccc3)c2=O)cc(-c2ccccc2)[nH]c1=O
- T/C (dose: 50.0 mg/kg/injection, schedule: Q01DX005 (ip), vehicle: Klucel (hydroxypropylcellulose) (HPC)): 88 % of control
- T/C (dose: 100.0 mg/kg/injection, schedule: Q01DX005 (ip), vehicle: Klucel (hydroxypropylcellulose) (HPC)): 89 % of control
- T/C (dose: 200.0 mg/kg/injection, schedule: Q01DX005 (ip), vehicle: Klucel (hydroxypropylcellulose) (HPC)): 110 % of control

SMILES: CC(C)N=C(NC(C)C)c1ccc(NC(=O)Nc2ccc(NC(=O)Nc3ccc(C(=NC(C)C)NC(C)C)cc3)cc2)cc1
- T/C (dose: 1.56 mg/kg/injection, schedule: Q01DX005 (ip), vehicle: saline with Tween-80): 111 % of control
- T/C (dose: 3.13 mg/kg/injection, schedule: Q01DX005 (ip), vehicle: saline with Tween-80): 108 % of control and 113 % of control
- T/C (dose: 6.25 mg/kg/injection, schedule: Q01DX005 (ip), vehicle: saline with Tween-80): 104 % of control and 124 % of control

SMILES: CC(=O)Nc1ccn(C2OC(COC(C)=O)C(OC(C)=O)C2OC(C)=O)c(=O)n1 (stereo not drawn)
- T/C (dose: 62.5 mg/kg/injection, schedule: Q01DX009 (ip), vehicle: Klucel (hydroxypropylcellulose) (HPC)): 102 % of control
- T/C (dose: 125.0 mg/kg/injection, schedule: Q01DX009 (ip), vehicle: Klucel (hydroxypropylcellulose) (HPC)): 119 % of control
- T/C (dose: 250.0 mg/kg/injection, schedule: Q01DX009 (ip), vehicle: Klucel (hydroxypropylcellulose) (HPC)): 157 % of control
- T/C (dose: 500.0 mg/kg/injection, schedule: Q01DX009 (ip), vehicle: Klucel (hydroxypropylcellulose) (HPC)): 155 % of control
- T/C (dose: 1000.0 mg/kg/injection, schedule: Q01DX009 (ip), vehicle: Klucel (hydroxypropylcellulose) (HPC)): 174 % of control

SMILES: C=C1C(C2=[N+]([O-])CCN2O)OC2OC(C)(C)OC12 (stereo not drawn)
- T/C [4]: 93 % of control
- T/C [5]: 101 % of control
- T/C [6]: 101 % of control

SMILES: COc1cc2c(cc1OC)[Se](Br)(Br)c1cc(OC)c(OC)cc1[Se]2
- T/C [7]: 107 % of control
- T/C [8]: 98 % of control
- T/C [9]: 100 % of control

SMILES: O=C1CC(=O)N2CCSC2=N1
- T/C [10]: 102 % of control
- T/C [1]: 101 % of control
- T/C [2]: 102 % of control
- T/C [3]: 98 % of control

SMILES: CN(C)C(=S)S(=O)(=O)c1ccc(Cl)cc1
- T/C [11]: 105 % of control
- T/C [12]: 96 % of control
- T/C (dose: 25.0 mg/kg/injection, schedule: Q04DX002 (ip), vehicle: Klucel (hydroxypropylcellulose) (HPC)): 119 % of control
- T/C [13]: 96 % of control
- T/C (dose: 50.0 mg/kg/injection, schedule: Q04DX002 (ip), vehicle: Klucel (hydroxypropylcellulose) (HPC)): 112 % of control

SMILES: Cc1ccc(-c2nc3c(C)nc(-c4ccccc4)nc3n2Nc2ccccc2)cc1
- T/C [14]: 94 % of control
- T/C [15]: 90 % of control
- T/C [16]: 91 % of control

SMILES: O=C(O)CNC(=O)CNC(=O)CCNC(=O)OCc1ccccc1 ({Cbz-βAla}-Gly-Gly-OH)
- T/C [14]: 101 % of control
- T/C [15]: 97 % of control
- T/C [16]: 108 % of control

SMILES: O=C(CC1=NC2NN(c3ccccc3)C(=O)C2=C1CC(=O)c1ccc(F)cc1)c1ccc(F)cc1 (stereo not drawn)
- T/C [7]: 98 % of control
- T/C [8]: 97 % of control
- T/C [9]: 97 % of control

SMILES: O=C(/C=C/c1ccccc1[N+](=O)[O-])c1ccccc1
- T/C [10]: 99 % of control
- T/C [1]: 101 % of control
- T/C [2]: 101 % of control
- T/C [3]: 108 % of control

SMILES: O=C1C2CCSCN2C(=O)N1c1ccccc1 (stereo not drawn)
- T/C [7]: 95 % of control
- T/C [8]: 103 % of control
- T/C [9]: 95 % of control

SMILES: COc1ccc(C[n+]2ccc3ccccc3c2C#N)cc1OC
- T/C (dose: 12.5 mg/kg/injection, schedule: Q04DX002 (ip), vehicle: saline): 111 % of control
- T/C [17]: 109 % of control

SMILES: NCC(O)c1ccc(Nc2ccnc3cc(Cl)ccc23)cc1 (stereo not drawn)
- T/C (dose: 50.0 mg/kg/injection, schedule: Q01DX005 (ip), vehicle: saline): 114 % of control
- T/C (dose: 100.0 mg/kg/injection, schedule: Q01DX005 (ip), vehicle: saline): 105 % of control

SMILES: Cc1cc2c(cc1C)NC1=C(N2)OC(c2ccc(C3OC4=C(Nc5cc(C)c(C)cc5N4)C3=O)cc2)C1=O (stereo not drawn)
- T/C [4]: 92 % of control
- T/C [5]: 92 % of control
- T/C [6]: 93 % of control

SMILES: CNCCC(Oc1ccccc1OC)c1ccccc1 (stereo not drawn)
- T/C (dose: 12.5 mg/kg/injection, schedule: Q04DX002 (ip), vehicle: saline with Tween-80): 106 % of control
- T/C (dose: 25.0 mg/kg/injection, schedule: Q04DX002 (ip), vehicle: saline with Tween-80): 100 % of control
- T/C [17]: 113 % of control
- T/C (dose: 50.0 mg/kg/injection, schedule: Q04DX002 (ip), vehicle: saline with Tween-80): 99 % of control and 98 % of control
- T/C (dose: 50.0 mg/kg/injection, schedule: Q04DX002 (ip), vehicle: saline): 103 % of control

SMILES: CC1=CC(=NN=c2cc(C)n([O-])c(C)c2)C=C(C)[N+]1=O
- T/C [18]: 118 % of control

SMILES: Cn1cc(/C=C/[N+](=O)[O-])c2ccc(OCc3ccccc3)cc21
- T/C (dose: 100.0 mg/kg/injection, schedule: Q04DX003 (ip), vehicle: Klucel (hydroxypropylcellulose) (HPC)): 105 % of control
- T/C (dose: 200.0 mg/kg/injection, schedule: Q04DX003 (ip), vehicle: Klucel (hydroxypropylcellulose) (HPC)): 95 % of control
- T/C (dose: 400.0 mg/kg/injection, schedule: Q04DX003 (ip), vehicle: Klucel (hydroxypropylcellulose) (HPC)): 97 % of control

SMILES: Nc1nc(N)c2nnn(C3OC(CO)C(O)C3O)c2n1 (stereo not drawn)
- T/C (dose: 3.0 mg/kg/injection, schedule: Q01DX009 (ip), vehicle: saline): 119 % of control
- T/C (dose: 12.0 mg/kg/injection, schedule: Q01DX009 (ip), vehicle: saline): 115 % of control
- T/C (dose: 12.5 mg/kg/injection, schedule: Q01DX009 (ip), vehicle: saline): 122 % of control
- T/C [18]: 105 % of control
- T/C (dose: 50.0 mg/kg/injection, schedule: Q01DX009 (ip), vehicle: saline): 96 % of control and 105 % of control

SMILES: OC(COc1cccc2ccccc12)CN(CCCl)CCCl (stereo not drawn)
- T/C (dose: 1.25 mg/kg/injection, schedule: Q01DX009 (ip), vehicle: saline): 122 % of control
- T/C (dose: 20.0 mg/kg/injection, schedule: Q01DX009 (ip), vehicle: saline): 91 % of control

SMILES: Cc1cc(N)n2c(nc3ccccc32)c1C#N
- T/C (dose: 15.0 mg/kg/injection, schedule: Q01DX005 (ip), vehicle: saline with Tween-80): 102 % of control
- T/C (dose: 30.0 mg/kg/injection, schedule: Q01DX005 (ip), vehicle: saline with Tween-80): 100 % of control
- T/C [7]: 93 % of control and 97 % of control

SMILES: O=c1[nH]c2cc([N+](=O)[O-])ccc2nc1/C=C(\O)c1cccnc1
- T/C [4]: 94 % of control
- T/C [5]: 88 % of control
- T/C [6]: 94 % of control

SMILES: O=C(NN(Cc1ccccc1)S(=O)(=O)c1ccccc1)c1ccccc1
- T/C [14]: 101 % of control
- T/C [15]: 107 % of control
- T/C [16]: 103 % of control

SMILES: Brc1c(Br)c(Br)c2n[nH]nc2c1Br
- T/C [12]: 103 % of control
- T/C [13]: 106 % of control
- T/C (dose: 100.0 mg/kg/injection, schedule: Q01DX009 (ip), vehicle: saline with Tween-80): 103 % of control
- T/C (dose: 200.0 mg/kg/injection, schedule: Q01DX009 (ip), vehicle: saline with Tween-80): 115 % of control

SMILES: CSc1nc(SC)c2nc(SC)n(-c3ccccc3)c2n1
- T/C (dose: 3.13 mg/kg/injection, schedule: Q01DX009 (ip), vehicle: saline with Tween-80): 102 % of control
- T/C (dose: 6.25 mg/kg/injection, schedule: Q01DX009 (ip), vehicle: saline with Tween-80): 104 % of control
- T/C [11]: 101 % of control
- T/C [12]: 97 % of control

SMILES: COc1cc(C(C)=O)c(C2=NC(C)(C)CO2)cc1C
- T/C [14]: 101 % of control
- T/C [15]: 98 % of control
- T/C [16]: 97 % of control
